Results as given in US11827636B2, “Degradation of cyclin-dependent kinase 8 (CDK8) by conjugation of CDK8 inhibitors with E3 ligase ligand and methods of use” (DANA-FARBER CANCER INSTITUTE, INC., priority 2016, dated 2023).

Assays:
Format in all cases: cell-based
CDK8 [1] = molecular target: T1, CDK8 (Mus musculus, UniProt Q8R3L8); experiment: Enzyme degradation assay (western blot), CDK8 level in MC38 colorectal cancer cells; details: 6 hours
T1 construct: levels of CDK8, pS727-STAT1, and actin in MC38 colorectal cancer cells; endogenous in cells; host or cells: MC38 colorectal cancer cells
T1 sequence (Q8R3L8 1-464): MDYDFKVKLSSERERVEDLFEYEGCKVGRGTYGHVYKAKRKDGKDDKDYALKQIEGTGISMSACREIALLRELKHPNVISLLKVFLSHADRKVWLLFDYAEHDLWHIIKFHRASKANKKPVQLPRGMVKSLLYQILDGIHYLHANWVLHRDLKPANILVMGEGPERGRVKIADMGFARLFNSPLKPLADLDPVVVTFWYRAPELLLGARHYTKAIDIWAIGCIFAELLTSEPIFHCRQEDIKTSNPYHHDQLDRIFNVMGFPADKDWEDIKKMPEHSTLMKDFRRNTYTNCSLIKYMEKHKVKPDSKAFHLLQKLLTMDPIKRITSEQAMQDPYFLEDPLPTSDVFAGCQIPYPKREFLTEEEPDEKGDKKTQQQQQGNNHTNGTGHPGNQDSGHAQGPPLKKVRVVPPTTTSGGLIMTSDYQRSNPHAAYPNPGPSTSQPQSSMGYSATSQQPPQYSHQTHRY
T1 sequence (Q62447 1-283 partner): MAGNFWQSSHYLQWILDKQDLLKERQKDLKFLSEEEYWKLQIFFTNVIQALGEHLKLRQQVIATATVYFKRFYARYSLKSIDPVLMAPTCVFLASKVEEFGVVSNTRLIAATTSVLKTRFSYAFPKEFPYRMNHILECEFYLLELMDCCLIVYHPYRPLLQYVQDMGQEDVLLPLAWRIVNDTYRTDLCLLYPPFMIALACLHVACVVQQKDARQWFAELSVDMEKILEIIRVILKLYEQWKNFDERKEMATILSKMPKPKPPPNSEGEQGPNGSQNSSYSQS
T1 sequence (Q8C7D2 1-445 partner): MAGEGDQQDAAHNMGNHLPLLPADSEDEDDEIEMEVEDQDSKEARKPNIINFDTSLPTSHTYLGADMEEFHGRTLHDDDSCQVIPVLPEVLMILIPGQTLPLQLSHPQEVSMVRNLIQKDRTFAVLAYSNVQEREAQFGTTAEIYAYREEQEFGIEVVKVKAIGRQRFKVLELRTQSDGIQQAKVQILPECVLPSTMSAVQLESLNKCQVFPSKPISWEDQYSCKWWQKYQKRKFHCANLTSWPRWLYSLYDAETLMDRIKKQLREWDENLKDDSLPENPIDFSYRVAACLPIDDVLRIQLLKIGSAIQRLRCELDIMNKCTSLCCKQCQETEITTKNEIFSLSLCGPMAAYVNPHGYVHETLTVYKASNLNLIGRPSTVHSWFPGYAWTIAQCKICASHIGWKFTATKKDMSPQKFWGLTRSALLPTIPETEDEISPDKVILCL
Procedure: (§1) Cells are treated with a control or a bifunctional compound of the application alone or in combination with an agent that blocks proteasomal degradation at a single concentration or various concentrations. After treatment, cells are washed and harvested by resuspending in buffer and lysed on ice 30 minutes. Lysates are then cleared by centrifugation. Samples are boiled and equal amount of protein is loaded onto polyacrylamide gel. The gel is transferred to nitrocellulose and blotted for CDK8, mTOR, STAT1 serine 727 phosphorylation or actin.
Cells are treated with a control or a bifunctional compound of the application at various concentrations for a desired period of time. Cells are then lysed in a suitable buffer. Protein concentration may be measured with any appropriate assay known in the art. […] The signals from the label are detected.
The indicated cells were treated with vehicle control or the bifunctional compounds of the application, at a single or various concentrations, alone or in combination with bortezomib, an agent that blocks proteasomal degradation. […] Protein concentrations were determined by BCA assay, and equal amounts of protein were loaded onto gels to perform Western blots. […] Antibody binding was detected using near-infrared-dye-conjugated secondary antibodies. […]

CDK8 [2] = molecular target: T2, CDK8 (Homo sapiens, UniProt P49336); experiment: Enzyme degradation assay (western blot), CDK8 level in wild-type (WT) Molt4 cells; details: 1 μM compound, 6 hours
T2 construct: endogenous in cells; host or cells: wild-type Molt4 cells
Procedure: as §1
(§2) The indicated cells were treated with vehicle control or the bifunctional compounds of the application, at a single or various concentrations, alone or in combination with bortezomib, an agent that blocks proteasomal degradation. After treatment, cells were washed with PBS and lysed in lysis buffer and then cleared by centrifugation. Protein concentrations were determined by BCA assay, and equal amounts of protein were loaded onto gels to perform Western blots. Gels were transferred to nitrocellulose, blocked with 5% milk in TBS-T, and probed for CDK8, mTOR, S727-STAT1, and Actin. Antibody binding was detected using near-infrared-dye-conjugated secondary antibodies.

pS727-STAT1 [3] = experiment: Western blot, pS727-STAT1 level in wild-type (WT) Molt4 cells; details: 1 μM compound, 6 hours
Procedure: as §1, §2

pS727-STAT1 [4] = experiment: Western blot, pS727-STAT1 level in MC38 colorectal cancer cells; details: 6 hours
Procedure: as §1, §2

[5] = 1 μM compound in combination with 10 nM bortezomib

T2 sequence (P49336 whole entry): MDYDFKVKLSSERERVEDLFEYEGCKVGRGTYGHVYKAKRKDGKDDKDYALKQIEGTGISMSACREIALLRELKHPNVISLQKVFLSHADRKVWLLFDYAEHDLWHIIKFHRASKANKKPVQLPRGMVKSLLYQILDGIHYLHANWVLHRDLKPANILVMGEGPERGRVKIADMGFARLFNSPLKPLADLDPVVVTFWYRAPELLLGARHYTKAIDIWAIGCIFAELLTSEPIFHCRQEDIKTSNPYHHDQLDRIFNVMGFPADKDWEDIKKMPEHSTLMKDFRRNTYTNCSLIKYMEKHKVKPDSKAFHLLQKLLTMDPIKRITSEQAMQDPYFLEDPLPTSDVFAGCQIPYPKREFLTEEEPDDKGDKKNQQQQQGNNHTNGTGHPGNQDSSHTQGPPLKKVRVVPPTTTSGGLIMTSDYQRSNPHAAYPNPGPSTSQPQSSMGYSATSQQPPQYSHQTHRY
T2 sequence (P24863 whole entry partner): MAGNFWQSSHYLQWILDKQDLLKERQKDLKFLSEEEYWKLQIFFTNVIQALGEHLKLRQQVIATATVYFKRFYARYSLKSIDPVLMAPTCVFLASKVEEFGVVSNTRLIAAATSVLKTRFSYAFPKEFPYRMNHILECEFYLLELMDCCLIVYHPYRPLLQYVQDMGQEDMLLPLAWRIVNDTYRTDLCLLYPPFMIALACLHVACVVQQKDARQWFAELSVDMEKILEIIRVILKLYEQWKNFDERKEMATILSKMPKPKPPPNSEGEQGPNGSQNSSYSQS
T2 sequence (Q96SW2 whole entry partner): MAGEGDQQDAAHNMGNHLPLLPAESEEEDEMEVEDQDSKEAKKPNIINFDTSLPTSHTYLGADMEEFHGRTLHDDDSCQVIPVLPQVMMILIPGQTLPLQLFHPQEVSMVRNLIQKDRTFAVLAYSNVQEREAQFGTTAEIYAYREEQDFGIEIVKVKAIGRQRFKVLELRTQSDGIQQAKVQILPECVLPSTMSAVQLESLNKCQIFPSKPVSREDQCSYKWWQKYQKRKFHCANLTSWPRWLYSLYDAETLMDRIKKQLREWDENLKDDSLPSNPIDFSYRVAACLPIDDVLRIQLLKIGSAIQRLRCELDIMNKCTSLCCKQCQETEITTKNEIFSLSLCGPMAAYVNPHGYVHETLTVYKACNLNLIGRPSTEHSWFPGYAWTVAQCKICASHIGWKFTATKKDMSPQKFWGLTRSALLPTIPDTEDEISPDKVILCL

Structure (SMILES) | degradation of CDK8 when the proteasome is inhibited with bortezomib (CDK8 [1]; [5]) | degradation of CDK8 (western blot level of CDK8) (CDK8 [1]; 1 μM compound, alone) | degradation of CDK8 (western blot level of CDK8) (CDK8 [2]) | phosphorylation of Ser727-STAT1 (pS727-STAT1 [3]) | reduction in the level of pSer727-STAT1 when the proteasome is inhibited with bortezomib (pS727-STAT1 [4]; [5]) | level of phosphorylation of the CDK8 substrate Ser727-STAT1 (pS727-STAT1 [4]; 1 μM compound, alone)
O=C1CCC(N2C(=O)c3cccc(NCCOCCOCCOCCOCCOCCC(=O)N4CCN(c5ccc(-n6c(=O)ccc7cnc8ccc(-c9ccc%10ccncc%10c9)cc8c76)cc5C(F)(F)F)CC4)c3C2=O)C(=O)N1 (centres unmarked) [Compound I-3, 2-(2,6-dioxopiperidin-3-yl)-4-((18-(4-(4-(9-(isoquinolin-7-yl)-2-oxobenzo[h][1,6]naphthyridin-1(2H)-yl)-2-(trifluoromethyl)phenyl)piperazin-1-yl)-18-oxo-3,6,9,12,15-pentaoxaoctadecyl)amino)isoindoline-1,3-dione] | rescued | efficiently degraded CDK8 | efficiently degraded CDK8 | blocked phosphorylation | rescued | lowered the level of phosphorylation
O=C1CCC(N2C(=O)c3cccc(NCCCCn4cc(-c5ccc(-c6cncc(Cl)c6N6CCC7(CCNC7=O)CC6)cc5)cn4)c3C2=O)C(=O)N1 (centres unmarked) [Compound I-6, 4-(4-(4-(4-(5-chloro-4-(1-oxo-2,8-diazaspiro[4.5]decan-8-yl)pyridin-3-yl)phenyl)-1H-pyrazol-1-yl)butylamino)-2-(2,6-dioxopiperidin-3-yl)isoindoline-1,3-dione] |  |  | efficiently degraded CDK8 | blocked phosphorylation |  | 
